The values below come from patent US4052409A, “Disubstituted triphenylmethylimidazoles” (Bayer Aktiengesellschaft, priority 1972, dated 1977).

≈ marks a conversion by molar mass, not a printed value. Where two headings read alike, the source gives them in different places. Bounds are passed on as bounds.

Assay [1] has as its system Microsporon canis. Kind of assay: Antimycotic activity in vitro, series dilution test. It is filed as cell-based. Conditions: 28° C, 24 to 96 hours; serum not stated; read-out: Minimum Inhibitory Concentration. The procedure: (§1) Determination of the antimycotic spectrum of activity in vitro by the series dilution test.
(§2) The nutrient media used were Sabouraud's milieu d'epreuve for dermatophytes and molds and meat broth-glucose bouillon for blastomycetes and biphase fungi.
(§3) The incubation temperature was 28° C and the incubation time was 24 to 96 hours.

Assay [2] has as its system Aspergillus niger. Described as above. It is filed as cell-based. Conditions: 28° C, 24 to 96 hours, read-out: Minimum Inhibitory Concentration. The procedure: as §1, §2, §3
Assay [3] has as its system Penicillium commune. The assay is described as above. As to conditions: 28° C, 24 to 96 hours, serum not stated, read-out: Minimum Inhibitory Concentration. It is filed as cell-based. The procedure: as §1, §2, §3
Assay [4] concerns Candida albicans. Described as above. It is filed as cell-based. As to conditions: 28° C, 24 to 96 hours, read-out: Minimum Inhibitory Concentration. The protocol: as §1, §2, §3
The subject of assay [5] is Trichophyton mentagrophytes. The assay is described as above. It is filed as cell-based. Conditions: 28° C, 24 to 96 hours, read-out: Minimum Inhibitory Concentration. The procedure: as §1, §2, §3
For assay [6], the system named is Trichophyton mentagrophytes. Description: Topical application in experimental trichophytosis of guinea pigs. It is filed as in vivo. More on the design: key: ++: slight action = reduction of symptons of the infection; +++: action = rapid healing of the infection; ++++: good action = complete suppression of symptoms of the infection. Conditions: 1% strength solution, topically for 11 to 14 days. The text has this: a. Topical application in experimental trichophytosis of guinea pigs (excitant: Trichophyton mentagrophytes)
A 1% strength solution of the active compound in a dimethylsulphoxide/glycerine/water mixture (1:3:6) or in polyethylene glycol 400 was applied topically for 11 to 14 days after the trichophytosis had been caused experimentally.

Consider `Cc1ccc(C)c(C(c2ccccc2)(c2ccccc2)n2ccnc2)c1` [Example 3 (from Table 1), 1-(2,5-Dimethylphenyl-diphenyl)-methyl-imidazole], for which the MIC in assay [1] came to 4 µg/mL (≈ 11.8 µM); in assay [2] (n.s. = no added serum), 1 µg/mL (≈ 2.95 µM); in assay [2] (w.s. = with 30% serum added) it was 40 µg/mL (≈ 118 µM); in assay [3], 4 µg/mL (≈ 11.8 µM).
Turning to `Clc1cccc(C(c2ccccc2)(c2ccccc2)n2ccnc2)c1Cl` [Example 6], the MIC was 1 µg/mL (≈ 2.64 µM) in assay [4] (n.s. = no added serum); less than 1 µg/mL in assay [5] (n.s. = no added serum); 4 µg/mL (≈ 10.5 µM) in assay [5] (w.s. = with 30% serum added); less than 1 µg/mL in assay [1]; less than 1 µg/mL in assay [2] (n.s. = no added serum); 10 µg/mL (≈ 26.4 µM) in assay [2] (w.s. = with 30% serum added). The MIC in assay [3] turned out to be 4 µg/mL (≈ 10.5 µM). Further, the “Action in trichophytosis of guinea pigs” value in assay [6] is “++”.
As for `Cc1ccc(C(c2ccccc2)(c2ccccc2)n2ccnc2)c(C)c1` [Example 2], the MIC was 1 µg/mL (≈ 2.95 µM) in assay [4] (n.s. = no added serum); less than 1 µg/mL in assay [5] (n.s. = no added serum); 10 µg/mL (≈ 29.5 µM) in assay [5] (w.s. = with 30% serum added); 4 µg/mL (≈ 11.8 µM) in assay [1]; 1 µg/mL (≈ 2.95 µM) in assay [2] (n.s. = no added serum); 4 µg/mL (≈ 11.8 µM) in assay [2] (w.s. = with 30% serum added). For the same molecule, the MIC in assay [3] amounted to 100 µg/mL (≈ 295 µM). Further, in assay [6], the “Action in trichophytosis of guinea pigs” value is recorded as “++++”.
`Cc1cccc(C(c2ccccc2)(c2ccccc2)n2ccnc2)c1C` [Example 1 (from Table 1), 1-(2,3-dimethylphenyl-diphenyl)-methyl-imidazole]: the results for the MIC in assay [1] and in assay [3] were 4 µg/mL (≈ 11.8 µM) and less than 1 µg/mL, respectively.
With `Cc1ccccc1C(c1ccccc1)(c1ccccc1C)n1ccnc1` [Example 8 (from Table 1), 1-(2-Methylphenyl-2'-methylphenyl-phenyl)-methyl-imidazole], the MIC in assay [4] (w.s. = with 30% serum added) was 10 µg/mL (≈ 29.5 µM); in assay [1], 4 µg/mL (≈ 11.8 µM); in assay [2] (n.s. = no added serum), less than 1 µg/mL; in assay [2] (w.s. = with 30% serum added), 10 µg/mL (≈ 29.5 µM); in assay [3], 10 µg/mL (≈ 29.5 µM).
Consider `Cc1cc(Cl)ccc1C(c1ccccc1)(c1ccccc1)n1ccnc1` [Example 4 (from Table 1), 1-(2-Methyl-4-chlorophenyl-diphenyl)-methyl-imidazole], for which the MIC in assay [1] is 4 µg/mL (≈ 11.1 µM); in assay [2] (n.s. = no added serum) it was 1 µg/mL (≈ 2.79 µM); in assay [2] (w.s. = with 30% serum added), 10 µg/mL (≈ 27.9 µM); in assay [3], 4 µg/mL (≈ 11.1 µM).
Turning to `Clc1ccccc1C(c1ccccc1)(c1ccccc1Cl)n1ccnc1` [Example 9 (from Table 1), 1-(2-Chlorophenyl-2'-chlorophenyl-phenyl) -methyl-imidazole], the MIC in assay [1] is less than 1 µg/mL; in assay [2] (n.s. = no added serum) it was less than 1 µg/mL; in assay [3] it was 1 µg/mL (≈ 2.64 µM).
`Clc1cccc(Cl)c1C(c1ccccc1)(c1ccccc1)n1ccnc1` [Example 7 (from Table 1), 1-(2,6-Dichlorophenyl-diphenyl)-methyl-imidazole]: the MIC is less than 1 µg/mL in assay [1], less than 1 µg/mL in assay [2] (n.s. = no added serum), 4 µg/mL (≈ 10.5 µM) in assay [2] (w.s. = with 30% serum added) and 4 µg/mL (≈ 10.5 µM) in assay [3].
